Source: ChEMBL document CHEMBL4376810, “Bioactive Secondary Metabolites from Bacillus subtilis: A Comprehensive Review” (2019)
≈ marks a conversion by molar mass, not a printed value. Each block holds one compound with its values, some of them ahead of it. Non-standard residues stand in square brackets, D forms with d. Residues, ends and D or L forms follow the SMILES beside them. *: point of attachment. Tridecanoyl(3R-OH,11-Me) = CCC(C)CCCCCCC[C@@H](O)CC(=O)*; X1 = CCC(C)CC(C)CCCCC[C@@H](O)CC(=O)*

Columns and labels:
[1] = tested on: Staphylococcus aureus; experiment: Antibacterial activity against Staphylococcus aureus; type: functional
[2] = tested on: Staphylococcus aureus; experiment: Antibacterial activity against methicillin-resistant Staphylococcus aureus incubated for 24 hrs by broth microdilution method; type: functional
[3] = tested on: Micrococcus luteus; experiment: Antibacterial activity against Micrococcus luteus incubated for 24 hrs by broth microdilution method; type: functional
[4] = tested on: Bacillus pumilus; experiment: Antibacterial activity against Bacillus pumilus incubated for 24 hrs by broth microdilution method; type: functional
[5] = tested on: Staphylococcus aureus; experiment: Antibacterial activity against methicillin-resistant Staphylococcus aureus; type: functional
[6] = tested on: Staphylococcus aureus; experiment: Antibacterial activity against oxacillin-resistant Staphylococcus aureus by broth microdilution method; type: functional
[7] = tested on: Streptococcus pneumoniae; experiment: Antibacterial activity against Streptococcus pneumoniae by broth microdilution method; type: functional
[8] = tested on: Staphylococcus epidermidis; experiment: Antibacterial activity against Staphylococcus epidermidis by broth microdilution method; type: functional
[9] = tested on: Morganella morganii; experiment: Antibacterial activity against streptomycin-resistant Morganella morganii incubated for 18 hrs by agar dilution assay; type: functional
[10] = tested on: Salmonella typhimurium; experiment: Antibacterial activity against Salmonella typhimurium incubated for 18 hrs by agar dilution assay; type: functional, Salmonella enterica subsp. enterica serovar Typhimurium; settings: Salmonella enterica
[11] = tested on: Staphylococcus aureus; experiment: Antibacterial activity against methicillin-resistant Staphylococcus aureus incubated for 18 hrs by agar dilution assay; type: functional
[12] = tested on: Rhizoctonia solani; experiment: Antifungal activity against Rhizoctonia solani assessed as inhibition of fungal growth incubated for 48 hrs by standard broth dilution assay; type: functional
[13] = tested on: Botrytis cinerea; experiment: Antifungal activity against Botrytis cinerea assessed as inhibition of fungal growth incubated for 48 hrs by standard broth dilution assay; type: functional
[14] = tested on: Colletotrichum acutatum; experiment: Antifungal activity against Colletotrichum acutatum assessed as inhibition of fungal growth incubated for 48 hrs by standard broth dilution assay; type: functional

Structure (SMILES): CC(C)C[C@H](NC(=O)[C@@H](O)[C@@H](O)[C@@H](N)CC(N)=O)[C@@H]1Cc2cccc(O)c2C(=O)O1
MIC [1]: < 1 µg/mL

Structure (SMILES): CC1=CC2C(OC3OC(C)C(O)C(O)C3O)CCCC2C2C(=O)OC(=O)/C(C)=C3/CC(O)C/C3=C/2C1/C=C/C=C/C=C(\C)CC(C)CC(O)C(C)C(=O)O (stereo not drawn)
MIC [2]: < 7 µg/mL
MIC [3]: < 7 µg/mL
MIC [4]: < 7 µg/mL

Structure (SMILES): CCCCCCCCCCCCC(=O)N[C@@H]1C(=O)N[C@H](CCC(N)=O)C(=O)N[C@@H](CC(=O)O)C(=O)NCC(=O)N[C@@H](CC(N)=O)C(=O)N[C@@H](CC(=O)O)C(=O)NCC(=O)N[C@@H](Cc2ccc(O)cc2)C(=O)N[C@@H](C(C)C)C(=O)OC1C (stereo partly drawn)
MIC [5]: 20 µg/mL (≈ 17.4 µM)

Structure (SMILES): CC(C)C[C@H](NC(=O)[C@H]1OCN[C@@H](CC(N)=O)[C@@H]1O)[C@@H]1Cc2cccc(O)c2C(=O)O1
MIC [6]: 0.5 to 2 µg/mL (≈ 1.15 to 4.59 µM)
MIC [7]: 0.5 to 2 µg/mL (≈ 1.15 to 4.59 µM)
MIC [8]: 0.5 to 2 µg/mL (≈ 1.15 to 4.59 µM)

Structure (SMILES): C=C/C=C(\C)CCC1CCC/C=C\C=C(\C)C(OP(=O)(O)O)CCC\C=C/C=C\C=C\C=C\C(O)C(C)C(=C)CC(=O)O1 (stereo not drawn)
MIC [9]: 2 to 32 µg/mL (≈ 3.25 to 52.1 µM)
MIC [10]: 2 to 32 µg/mL (≈ 3.25 to 52.1 µM)
MIC [11]: 2 to 32 µg/mL (≈ 3.25 to 52.1 µM)

Structure (SMILES): C=C/C=C(\C)CCC1CCC/C=C\C=C(\C)C(OP(=O)(O)O)CCC\C=C/C=C\C=C\C=C\CC(C)C(=C)CC(=O)O1 (stereo not drawn)
MIC [9]: 2 to 32 µg/mL (≈ 3.34 to 53.4 µM)
MIC [10]: 2 to 32 µg/mL (≈ 3.34 to 53.4 µM)
MIC [11]: 2 to 32 µg/mL (≈ 3.34 to 53.4 µM)

Structure (SMILES): CCCCCCCCCCCCCC(=O)N[C@@H]1C(=O)N[C@H](CCC(N)=O)C(=O)N[C@@H](CC(=O)O)C(=O)NCC(=O)N[C@@H](CC(N)=O)C(=O)N[C@@H](CC(=O)O)C(=O)NCC(=O)N[C@@H](Cc2ccc(O)cc2)C(=O)N[C@@H](C(C)C)C(=O)OC1C (stereo partly drawn)
MIC [5]: 20 µg/mL (≈ 17.2 µM)

Structure (SMILES): CC1=CC2C(OC3OC(C)C(O)C(=O)C3O)CCCC2C2C(=O)OC(=O)/C(C)=C3/CC(O)C/C3=C/2C1/C=C/C=C/C=C(\C)CC(C)CC(O)C(C)C(=O)O (stereo not drawn)
MIC [2]: < 7 µg/mL
MIC [3]: < 7 µg/mL
MIC [4]: < 7 µg/mL

Structure (SMILES): CCCCCCCCCCCC(=O)N[C@@H]1C(=O)N[C@H](CCC(N)=O)C(=O)N[C@@H](CC(=O)O)C(=O)NCC(=O)N[C@@H](CC(N)=O)C(=O)N[C@@H](CC(=O)O)C(=O)NCC(=O)N[C@@H](Cc2ccc(O)cc2)C(=O)N[C@@H](C(C)C)C(=O)OC1C (stereo partly drawn)
MIC [5]: 20 µg/mL (≈ 17.7 µM)

Structure (SMILES): CC1=CC2C(OC3OC(C)C(O)C(=O)C3O)CCCC2C2C(=O)OC(=O)/C=C3/CC(O)C/C3=C/2C1/C=C/C=C/C=C(\C)CC(C)CC(O)C(C)C(=O)O (stereo not drawn)
MIC [2]: < 7 µg/mL
MIC [3]: < 7 µg/mL
MIC [4]: < 7 µg/mL

MIC [12]: 4 to 8 µg/mL (≈ 3.79 to 7.59 µM)
MIC [13]: 4 to 8 µg/mL (≈ 3.79 to 7.59 µM)
MIC [14]: 4 to 8 µg/mL (≈ 3.79 to 7.59 µM)
Structure (SMILES): CCC(C)CC(C)CCCCC[C@@H](O)CC(=O)N[C@@H](CCC(=O)O)C(=O)N[C@@H](CC(C)C)C(=O)N[C@@H](CC(C)C)C(=O)N[C@@H](C(=O)N[C@@H](CC(=O)O)C(=O)N[C@@H](CC(C)C)C(=O)N[C@@H](CC(C)C)C(=O)O)C(C)C (stereo partly drawn) (X1-ELL[dV]DLL-OH)

MIC [12]: 4 to 8 µg/mL (≈ 3.84 to 7.69 µM)
MIC [13]: 4 to 8 µg/mL (≈ 3.84 to 7.69 µM)
MIC [14]: 4 to 8 µg/mL (≈ 3.84 to 7.69 µM)
Structure (SMILES): CCC(C)CCCCCCC[C@@H](O)CC(=O)N[C@@H](CCC(=O)O)C(=O)N[C@@H](CC(C)C)C(=O)N[C@@H](CC(C)C)C(=O)N[C@@H](C(=O)N[C@@H](CC(=O)O)C(=O)N[C@@H](CC(C)C)C(=O)N[C@@H](CC(C)C)C(=O)O)C(C)C (stereo partly drawn) ({Tridecanoyl(3R-OH,11-Me)}-ELL[dV]DLL-OH)
